Where no end group is shown, it is not given here.
Tested on: P. aeruginosa strain ATCC 27853
Assay type: cell-based
Conditions: ATCC 27853
Procedure, shortened: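 Peptides serially diluted 1:2 to final 0.25–256 μg/ml in Mueller Hinton broth, inoculated with 1-5×10^5 CFUs/ml from mid-log culture. Incubated 16-20 hours at 37° C. MIC = lowest peptide concentration giving a clear well.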

## GIGKFLKKAKKFGKAFVKILKK [MSI-344]
  MIC P. aeruginosa ATCC 27853: 16 µg/mL

Source: patent publication US6348445B1, “Biologically active peptides with reduced toxicity in animals and a method for preparing same” (priority 1992, dated 2002)
